Measured values as given in patent US7750003B2, “Compounds-943” (AstraZeneca AB, priority 2006, dated 2010).

Biological target: recombinant mTOR (FLAG-tagged, residues 1362-2549) (Homo sapiens, UniProt P42345)
Experiment: In vitro mTOR kinase assay (Test (a), AlphaScreen)
Assay type: biochemical
Conditions: ATP 20 μM, read-out: Test (a): IC50 versus mTOR kinase
Experimental: (a) In Vitro mTOR Kinase Assay
Following expression in the mammalian HEK293 cell line, expressed protein was purified using the FLAG epitope tag using standard purification techniques.
Aliquots (2 μl) of each compound dilution were placed into a well of a Greiner 384-well low volume (LV) white polystyrene plate (Greiner Bio-one).
These assay solutions were incubated for 2 hours at room temperature.
The resultant signals arising from laser light excitation at 680 nm were read using a Packard Envision instrument.
The phosphorylated biotinylated peptide that is associated with AlphaScreen Streptavidin donor beads forms a complex with the p70 S6 Kinase (T389) 1A5 Monoclonal Antibody that is associated with Alphascreen Protein A acceptor beads. Upon laser light excitation at 680 nm, the donor bead: acceptor bead complex produces a signal that can be measured. Accordingly, the presence of mTOR kinase activity results in an assay signal. In the presence of an mTOR kinase inhibitor, signal strength is reduced.
mTOR enzyme inhibition for a given test compound was expressed as an IC50 value.

Sequence of recombinant mTOR (FLAG-tagged, residues 1362-2549) (P42345 1362-2549): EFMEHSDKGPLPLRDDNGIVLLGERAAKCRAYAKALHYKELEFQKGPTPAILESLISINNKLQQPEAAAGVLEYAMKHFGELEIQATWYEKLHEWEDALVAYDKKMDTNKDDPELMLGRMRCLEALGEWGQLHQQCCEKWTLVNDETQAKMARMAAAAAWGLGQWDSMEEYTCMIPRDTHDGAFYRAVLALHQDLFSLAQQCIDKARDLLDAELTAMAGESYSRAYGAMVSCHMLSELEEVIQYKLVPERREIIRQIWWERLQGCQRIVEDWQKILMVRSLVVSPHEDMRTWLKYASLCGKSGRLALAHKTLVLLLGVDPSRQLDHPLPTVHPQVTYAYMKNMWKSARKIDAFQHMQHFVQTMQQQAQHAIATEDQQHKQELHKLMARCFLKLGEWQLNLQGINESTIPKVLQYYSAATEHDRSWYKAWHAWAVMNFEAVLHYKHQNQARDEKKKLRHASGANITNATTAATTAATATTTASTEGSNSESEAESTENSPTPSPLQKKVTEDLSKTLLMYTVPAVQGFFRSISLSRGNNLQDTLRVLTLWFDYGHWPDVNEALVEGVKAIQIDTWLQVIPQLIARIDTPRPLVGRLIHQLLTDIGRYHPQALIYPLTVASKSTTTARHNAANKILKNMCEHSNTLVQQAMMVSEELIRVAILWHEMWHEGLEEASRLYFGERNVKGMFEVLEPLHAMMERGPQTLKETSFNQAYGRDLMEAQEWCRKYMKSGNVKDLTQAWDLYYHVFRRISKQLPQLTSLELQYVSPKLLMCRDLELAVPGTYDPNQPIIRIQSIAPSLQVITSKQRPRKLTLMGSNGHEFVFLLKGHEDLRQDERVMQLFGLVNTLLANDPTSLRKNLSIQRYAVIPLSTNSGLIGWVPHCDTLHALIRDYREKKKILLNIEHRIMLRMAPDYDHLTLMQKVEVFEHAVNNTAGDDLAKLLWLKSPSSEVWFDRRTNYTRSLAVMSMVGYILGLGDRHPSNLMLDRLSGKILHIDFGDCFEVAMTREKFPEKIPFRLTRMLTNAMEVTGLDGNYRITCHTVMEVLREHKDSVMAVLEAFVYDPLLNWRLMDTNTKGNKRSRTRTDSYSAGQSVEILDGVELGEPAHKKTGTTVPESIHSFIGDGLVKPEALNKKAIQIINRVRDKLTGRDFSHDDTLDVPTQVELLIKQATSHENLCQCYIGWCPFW

CCNC(=O)Nc1ccc(-c2nc(CS(C)(=O)=O)cc(N3CCOC[C@@H]3C)n2)cc1 [Example 1, 1-Ethyl-3-[4-[4-[(3S)-3-methylmorpholin-4-yl]-6-(methylsulfonylmethyl)pyrimidin-2-yl]phenyl]urea]
IC50: 6.2 nM

COc1ccc(NC(=O)Nc2ccc(-c3nc(CS(C)(=O)=O)cc(N4CCOC[C@@H]4C)n3)cc2)cc1 [Example 1a, 1-(4-methoxyphenyl)-3-[4-[4-[(3S)-3-methylmorpholin-4-yl]-6-(methylsulfonylmethyl)pyrimidin-2-yl]phenyl]urea]
IC50: 62 nM

CC(C)NC(=O)Nc1ccc(-c2nc(CS(C)(=O)=O)cc(N3CCOC[C@@H]3C)n2)cc1 [Example 1c, 3-[4-[4-[(3S)-3-methylmorpholin-4-yl]-6-(methylsulfonylmethyl)pyrimidin-2-yl]phenyl]-1-propan-2-yl-urea]
IC50: 78 nM

C[C@H]1COCCN1c1cc(CS(C)(=O)=O)nc(-c2ccc(NC(=O)Nc3ccc(F)cc3)cc2)n1 [Example 1e, 3-(4-fluorophenyl)-1-[4-[4-[(3S)-3-methylmorpholin-4-yl]-6-(methylsulfonylmethyl)pyrimidin-2-yl]phenyl]urea]
IC50: 320 nM

C[C@H]1COCCN1c1cc(CS(C)(=O)=O)nc(-c2ccc(NC(=O)Nc3ccc(F)cc3)c(F)c2)n1 [Example 1f, 1-[2-fluoro-4-[4-[(3S)-3-methylmorpholin-4-yl]-6-(methylsulfonylmethyl)pyrimidin-2-yl]phenyl]-3-(4-fluorophenyl)urea]
IC50: 360 nM

C[C@H]1COCCN1c1cc(CS(C)(=O)=O)nc(-c2ccc(NC(=O)Nc3ccccc3)c(F)c2)n1 [Example 1g, 1-[2-fluoro-4-[4-[(3S)-3-methylmorpholin-4-yl]-6-(methylsulfonylmethyl)pyrimidin-2-yl]phenyl]-3-phenyl-urea]
IC50: 960 nM

COc1cc(-c2nc(CS(C)(=O)=O)cc(N3CCOC[C@@H]3C)n2)ccc1NC(=O)Nc1ccc(F)cc1 [Example 1h, 3-(4-fluorophenyl)-1-[2-methoxy-4-[4-[(3S)-3-methylmorpholin-4-yl]-6-(methylsulfonylmethyl)pyrimidin-2-yl]phenyl]urea]
IC50: 1200 nM

COc1ccc(NC(=O)Nc2ccc(-c3nc(CS(C)(=O)=O)cc(N4CCOC[C@@H]4C)n3)cc2OC)cc1 [Example 1i, 3-[2-methoxy-4-[4-[(3S)-3-methylmorpholin-4-yl]-6-(methylsulfonylmethyl)pyrimidin-2-yl]phenyl]-1-(4-methoxyphenyl)urea]
IC50: 550 nM

C[C@H]1COCCN1c1cc(CS(C)(=O)=O)nc(-c2ccc(NC(=O)Nc3ccc(F)cc3)nc2)n1 [Example 1j, 3-(4-fluorophenyl)-1-[5-[4-[(3S)-3-methylmorpholin-4-yl]-6-(methylsulfonylmethyl)pyrimidin-2-yl]pyridin-2-yl]urea]
IC50: 43 nM

C[C@H]1COCCN1c1cc(CS(C)(=O)=O)nc(-c2ccc(NC(=O)N3CCC3)cc2)n1 [Example 2, N-[4-[4-[(3S)-3-methylmorpholin-4-yl]-6-(methylsulfonylmethyl)pyrimidin-2-yl]phenyl]azetidine-1-carboxamide]
IC50: 310 nM

COCCN(C)C(=O)Nc1ccc(-c2nc(CS(C)(=O)=O)cc(N3CCOC[C@@H]3C)n2)cc1 [Example 2a, 1-(2-methoxyethyl)-1-methyl-3-[4-[4-[(3S)-3-methylmorpholin-4-yl]-6-(methylsulfonylmethyl)pyrimidin-2-yl]phenyl]urea]
IC50: 2300 nM

C[C@H]1COCCN1c1cc(CS(C)(=O)=O)nc(-c2ccc(NC(=O)N(C)C)cc2)n1 [Example 2b, 1,1-dimethyl-3-[4-[4-[(3S)-3-methylmorpholin-4-yl]-6-(methylsulfonylmethyl)pyrimidin-2-yl]phenyl]urea]
IC50: 290 nM

COc1cc(-c2nc(CS(C)(=O)=O)cc(N3CCOC[C@@H]3C)n2)ccc1NC(=O)N(C)C [Example 2c, 3-[2-methoxy-4-[4-[(3S)-3-methylmorpholin-4-yl]-6-(methylsulfonylmethyl)pyrimidin-2-yl]phenyl]-1,1-dimethyl-urea]
IC50: 1200 nM

CNC(=O)Nc1ccc(-c2nc(CS(C)(=O)=O)cc(N3CCOC[C@@H]3C)n2)cc1 [Example 2d, 1-methyl-3-[4-[4-[(3S)-3-methylmorpholin-4-yl]-6-(methylsulfonylmethyl)pyrimidin-2-yl]phenyl]urea]
IC50: 6.8 nM

CNC(=O)Nc1ccc(-c2nc(CS(C)(=O)=O)cc(N3CCOC[C@@H]3C)n2)cc1F [Example 2e, 3-[2-fluoro-4-[4-[(3S)-3-methylmorpholin-4-yl]-6-(methylsulfonylmethyl)pyrimidin-2-yl]phenyl]-1-methyl-urea]
IC50: 38 nM

C[C@H]1COCCN1c1cc(CS(C)(=O)=O)nc(-c2ccc(NC(=O)N(C)C)c(F)c2)n1 [Example 2f, 3-[2-fluoro-4-[4-[(3S)-3-methylmorpholin-4-yl]-6-(methylsulfonylmethyl)pyrimidin-2-yl]phenyl]-1,1-dimethyl-urea]
IC50: 1700 nM

Cc1cc(-c2nc(CS(C)(=O)=O)cc(N3CCOC[C@@H]3C)n2)ccc1NC(=O)Nc1ccccc1 [Example 3, 1-[2-Methyl-4-[4-[(3S)-3-methylmorpholin-4-yl]-6-(methylsulfonylmethyl)pyrimidin-2-yl]phenyl]-3-phenyl-urea]
IC50: 1500 nM

CCNC(=O)Nc1ccc(-c2nc(CS(C)(=O)=O)cc(N3CCOC[C@@H]3C)n2)cc1OC [Example 3a, 1-ethyl-3-[2-methoxy-4-[4-[(3S)-3-methylmorpholin-4-yl]-6-(methylsulfonylmethyl)pyrimidin-2-yl]phenyl]urea]
IC50: 100 nM

C[C@H]1COCCN1c1cc(CS(C)(=O)=O)nc(-c2ccc(NC(=O)Nc3ccccc3)c(Cl)c2)n1 [Example 3b, 1-[2-Chloro-4-[4-[(3S)-3-methylmorpholin-4-yl]-6-(methylsulfonylmethyl)pyrimidin-2-yl]phenyl]-3-phenyl-urea]
IC50: 440 nM

C[C@H]1COCCN1c1cc(CS(C)(=O)=O)nc(-c2cccc(NC(=O)Nc3ccccc3)c2)n1 [Example 3c, 1-[3-[4-[(3S)-3-Methylmorpholin-4-yl]-6-(methylsulfonylmethyl)pyrimidin-2-yl]phenyl]-3-phenyl-urea]
IC50: 3300 nM

C[C@H]1COCCN1c1cc(CS(C)(=O)=O)nc(-c2ccc(N(C)C(=O)Nc3ccccc3)cc2)n1 [Example 3d, 1-Methyl-1-[4-[4-[(3S)-3-methylmorpholin-4-yl]-6-(methylsulfonylmethyl)pyrimidin-2-yl]phenyl]-3-phenyl-urea]
IC50: 2900 nM

CCNC(=O)Nc1ccc(-c2nc(CS(C)(=O)=O)cc(N3CCOC[C@@H]3C)n2)cc1F [Example 4, 1-Ethyl-3-[2-fluoro-4-[4-[(3S)-3-methylmorpholin-4-yl]-6-(methylsulfonylmethyl)pyrimidin-2-yl]phenyl]urea]
IC50: 31 nM

C[C@H]1COCCN1c1cc(CS(C)(=O)=O)nc(-c2ccc(NC(=O)N3CCC3)c(F)c2)n1 [Example 4a, N-[2-Fluoro-4-[4-[(3S)-3-methylmorpholin-4-yl]-6-(methylsulfonylmethyl)pyrimidin-2-yl]phenyl]azetidine-1-carboxamide]
IC50: 1000 nM

CC(C)NC(=O)Nc1ccc(-c2nc(CS(C)(=O)=O)cc(N3CCOC[C@@H]3C)n2)cc1F [Example 4b, 3-[2-fluoro-4-[4-[(3S)-3-methylmorpholin-4-yl]-6-(methylsulfonylmethyl)pyrimidin-2-yl]phenyl]-1-propan-2-yl-urea]
IC50: 140 nM

COCCNC(=O)Nc1ccc(-c2nc(CS(C)(=O)=O)cc(N3CCOC[C@@H]3C)n2)cc1 [Example 4d, 1-(2-methoxyethyl)-3-[4-[4-[(3S)-3-methylmorpholin-4-yl]-6-(methylsulfonylmethyl)pyrimidin-2-yl]phenyl]urea]
IC50: 170 nM

COCCNC(=O)Nc1ccc(-c2nc(CS(C)(=O)=O)cc(N3CCOC[C@@H]3C)n2)cc1OC [Example 4e, 1-(2-methoxyethyl)-3-[2-methoxy-4-[4-[(3S)-3-methylmorpholin-4-yl]-6-(methylsulfonylmethyl)pyrimidin-2-yl]phenyl]urea]
IC50: 600 nM

COCCN(C)C(=O)Nc1ccc(-c2nc(CS(C)(=O)=O)cc(N3CCOC[C@@H]3C)n2)cc1F [Example 4f, 3-[2-Fluoro-4-[4-[(3S)-3-methylmorpholin-4-yl]-6-(methylsulfonylmethyl)pyrimidin-2-yl]phenyl]-1-(2-methoxyethyl)-1-methyl-urea]
IC50: 680 nM

COCCNC(=O)Nc1ccc(-c2nc(CS(C)(=O)=O)cc(N3CCOC[C@@H]3C)n2)cc1F [Example 4g, 3-[2-fluoro-4-[4-[(3S)-3-methylmorpholin-4-yl]-6-(methylsulfonylmethyl)pyrimidin-2-yl]phenyl]-1-(2-methoxyethyl)urea]
IC50: 830 nM

CCNC(=O)Nc1ccc(-c2nc(CO)cc(N3CCOC[C@@H]3C)n2)cc1 [Example 5, 1-Ethyl-3-[4-[4-(hydroxymethyl)-6-[(3S)-3-methylmorpholin-4-yl]pyrimidin-2-yl]phenyl]urea]
IC50: 63 nM

C[C@H]1COCCN1c1cc(CO)nc(-c2ccc(NC(=O)Nc3ccccc3)cc2)n1 [Example 6, 1-[4-[4-(Hydroxymethyl)-6-[(3S)-3-methylmorpholin-4-yl]pyrimidin-2-yl]phenyl]-3-phenyl-urea]
IC50: 560 nM

CC(C)NC(=O)Nc1ccc(-c2nc(CS(C)(=O)=O)cc(N3CCOCC3)n2)cc1 [Example 7, 3-[4-[4-(Methylsulfonylmethyl)-6-morpholin-4-yl-pyrimidin-2-yl]phenyl]-1-propan-2-yl-urea]
IC50: 170 nM

Cc1ccc(NC(=O)Nc2ccc(-c3nc(CS(C)(=O)=O)cc(N4CCOCC4)n3)cc2)cc1 [Example 7a, 1-(4-methylphenyl)-3-[4-[4-(methylsulfonylmethyl)-6-morpholin-4-yl-pyrimidin-2-yl]phenyl]urea]
IC50: 280 nM
